{"source": "PubChem BioAssay AID463206", "about": "(Broad Institute, 2010)", "note": "Activity calls are given as the source filed them.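 Rule for the calls: active = caspase luminescence falls with dose and the half-maximal concentration AC50 from the fitted curve is at or below a set limit; inconclusive = flat fit at 30 to 70% signal loss, or invalid fit; inactive = AC50 above the limit, or signal rises instead.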"}
{"system": "INS-1E cytokine-induced caspase-3/7, Caspase-Glo luminescence, 48 h", "experiment": "suppression of cytokine-driven beta-cell apoptosis – INS-1E rat cells, luminescence, orthogonal assay for beta-cell apoptosis protection project, dose response (AID 463206)"}
{"smiles": "CN(C)c1ccc(/C=C(\\C#N)C(=O)OCC(=O)N(C)C2CCS(=O)(=O)C2)cc1", "note": "(stereo not drawn)", "AC50": "> 26 µM (inactive)"}
{"smiles": "CCOc1ccc(C(Nc2cccnc2)c2cc(Cl)c3cccnc3c2O)cc1", "note": "(stereo not drawn)", "AC50": "> 26 µM (inactive)"}
{"smiles": "CCN1CCN(Cc2ccc(NC(=O)c3cc(NC(=O)c4cncc(-c5ccc(C#N)cc5)c4)cc(OC)c3)cc2C(F)(F)F)CC1", "AC50": "> 26 µM (inactive)"}
{"smiles": "COC(=O)c1sc(-c2ccc(C(C)(C)C)cc2)cc1NC(=O)/C=C/C(=O)O", "AC50": "> 26 µM (inactive)"}
{"smiles": "O=C(NCCc1cn2ccccc2n1)c1cc(COc2ccc3ncccc3c2)on1", "AC50": "> 26 µM (inactive)"}
{"smiles": "CCCCOCCCNc1ncnc2c1[nH]c1ccccc12", "AC50": "> 26 µM (inactive)"}
{"smiles": "Cc1[nH]n(-c2ccccc2)c(=O)c1/C=N/NC(=O)c1cccc(F)c1", "AC50": "> 26 µM (inactive)"}
{"smiles": "CC(C)N=c1cc2n(-c3ccc(Cl)cc3)c3ccccc3nc-2cc1Nc1ccc(Cl)cc1", "AC50": "> 26 µM (inactive)"}
{"smiles": "CC(C)c1ccc(COc2ccc(C(=O)N3CCOCC3)cc2)cc1", "AC50": "> 26 µM (inactive)"}
{"smiles": "CC(C)Oc1ccc(C(CCN)C2CCCCC2)cc1", "note": "(stereo not drawn)", "AC50": "> 26 µM (inactive)"}
{"smiles": "CCN(CC)c1ccc(/C=N/NC(=S)NCc2ccccc2)c(O)c1", "AC50": "> 26 µM (inactive)"}
{"smiles": "CCOC(=O)c1cnc(-n2nc(C)cc2C)nc1NNc1cc(C)nc(-c2ccccc2)n1", "AC50": "> 26 µM (inactive)"}
{"smiles": "O=C(/C(=C/c1ccc(Cl)cc1)c1nc2ccccc2[nH]1)c1cccs1", "AC50": "> 26 µM (inactive)"}
{"smiles": "O=C(Nc1nc2ccccc2[nH]1)c1ccccc1F", "AC50": "> 26 µM (inactive)"}
{"smiles": "CC(NC(=O)C1CCC(C(=O)NC(C)c2ccccc2)CC1)c1ccccc1", "note": "(stereo not drawn)", "AC50": "> 26 µM (inactive)"}
{"smiles": "COC(=O)c1cc(=O)n(CCc2ccccc2F)c(=Nc2ccc(F)c(Cl)c2)s1", "AC50": "> 26 µM (inactive)"}
{"smiles": "COC1=C(Nc2ccccc2)C(=O)c2ccccc2C1=O", "AC50": "> 26 µM (inactive)"}
{"smiles": "COc1cccc(/C=N/Nc2cc(C)nc(-c3ccccc3O)n2)c1O", "AC50": "> 26 µM (inactive)"}
{"smiles": "Cc1ccc2oc(-c3ccc(NC(=O)c4cccnc4)cc3)nc2c1", "AC50": "> 26 µM (inactive)"}
{"smiles": "O=C(OCCOc1cccc(Cl)c1)c1cc(S(=O)(=O)N2CCCCC2)ccc1N1CCOCC1", "AC50": "> 26 µM (inactive)"}
{"smiles": "Nc1c(Cl)ncnc1N/N=C/c1ccc2ccccc2n1", "AC50": "> 26 µM (inactive)"}
{"smiles": "c1csc(-c2csc3ncnc(NCCCN4CCOCC4)c23)c1", "AC50": "> 26 µM (inactive)"}
{"smiles": "CC1=CC(=O)C(C(C)C)=C/C1=N/OS(=O)(=O)c1ccccc1", "AC50": "> 26 µM (inactive)"}
{"smiles": "Cc1cccc(NC(=O)c2nc(S(=O)(=O)Cc3ccccc3)ncc2Cl)c1", "AC50": "> 26 µM (inactive)"}
{"smiles": "COc1ccc(S(=O)(=O)Nc2ccc3oc(C)c(C(C)=O)c3c2)cc1", "AC50": "22.6 µM"}
{"smiles": "CC(C)COC(=O)c1ccc2c(c1O)C(=O)c1ccccc1C2=O", "AC50": "> 26 µM (inactive)"}
{"smiles": "Cc1c(N/N=C(\\C#N)C(=O)c2ccc(Cl)cc2)c(=O)n(-c2ccccc2)n1C", "AC50": "> 26 µM (inactive)"}
{"smiles": "COc1ccc(-c2nn(-c3ccccc3)cc2/C=N/Nc2ccc3ccccc3n2)cc1OC", "AC50": "> 26 µM (inactive)"}
{"smiles": "CCc1cc(SC#N)cc(C)c1NC(=O)CCl", "AC50": "> 26 µM (inactive)"}
{"smiles": "O=C(C#Cc1ccccc1)Nc1cccc(F)c1", "AC50": "> 26 µM (inactive)"}
{"smiles": "Cc1ccc(-c2cnc(NC(=O)CCC(=O)N(C)Cc3ccccc3)n2C)cc1", "AC50": "> 26 µM (inactive)"}
{"smiles": "O=C(Nc1ccc(F)cc1)Nc1cc(OCC(F)(F)F)cc(OCC(F)(F)F)c1", "AC50": "> 26 µM (inactive)"}
{"smiles": "CC1=CC2/C=C(\\C)CCC(O)C(O)/C=C/C(=O)C23C(=O)NC(CC(C)C)C3C1C", "note": "(stereo not drawn)", "AC50": "> 26 µM (inactive)"}
{"smiles": "Cc1ccc(C)c(NS(=O)(=O)c2ccc(OCC(=O)NCc3cccnc3)cc2)c1", "AC50": "> 26 µM (inactive)"}
{"smiles": "COc1ccc(CNC(=O)c2c(C)oc3c2C(=O)c2ccccc2C3=O)cc1", "AC50": "> 26 µM (inactive)"}
{"smiles": "O=C(/C=C/c1cccc(Cl)c1)c1ccc([N+](=O)[O-])o1", "AC50": "> 26 µM (inactive)"}
{"smiles": "CCN(CC)c1ccc(N=C2C(=O)Nc3ccccc32)cc1", "AC50": "> 26 µM (inactive)"}
{"smiles": "Cc1ccc(NC(=O)Nc2cccc([N+](=O)[O-])c2)cc1F", "AC50": "> 26 µM (inactive)"}
